Patent US20110082087A1, “COMPOUNDS FOR TREATING PAIN” (Edificio ICAT, priority 2008, published 2011)

Legend:
[1] = Plasma serum stability of analogues; type: in vitro ADME; conditions: Human Serum, 1-hour incubation, read-out: Mean Parent Remaining (%); for remaining at 1 h, 400 uM: test concentration 400 uM; for remaining at 1 h, 800 uM: test concentration 800 uM
Description: These analogues were tested for plasma serum stability, in comparison with KTP-NH2.

rats = assay: Comparison with morphine, behavioural nociception tests and behaviour observation; type: in vivo, rat; conditions: rats; i.p.
Description: (§1) In vivo behavioural anti-nociception tests were carried out in rats (Wister, male). Unless otherwise stated, compounds were administered by intra-peritoneal (i.p.) injection. For most assays, the Tail Flick and the Hot Plate tests were used.
The analgesic potential of KTP-NH2 was also verified by comparison with well-known, widely-used analgesic molecules: ibuprofen and morphine.
From FIG. 12 it is possible to observe that the efficacy of 3 mg/100 g of KTP-NH2 is similar to that observed with 0.5 mg/100 g dose of morphine.

rats (Wister, male) [2] = assay: Tail Flick test; type: in vivo, rat; conditions: i.p.; rat
Description: as §1
The tail-flick test (D'Amour F. E., Smith D. L. 1941. A method for determining the loss of pain sensation. J Pharmacol Exp Ther 1941; 72:74-79) is a standard investigative tool for pain and analgesia assessment in rodents. It is based on a spinal reflex response of the tail to radiant heat. Pain sensitivity in rats was measured as they responded to the application of radiant heat to a small area of their tails. The rat's tail was placed over a window located on a platform and subjected to irradiation by an intense light beam (10 W). When the rat feels discomfort, it flicks its tail which automatically stops the timer. The reaction time from activation of the light beam to the tail flick is automatically presented on a digital display. A cut-off time of 24 s was applied. Animal reaction time is a measurement of animal resistance to pain and is used to measure efficacy of analgesics.

rats (Wister, male) [3] = assay: Increasing-temperature Hot Plate test; type: in vivo, rat; conditions: i.p.; rat
Description: as §1
The hot-plate test (Eddy N. B and Leimbach D. 1953. Synthetic analgesics II. Dithienylbutenyl and dithienylbutylamines J. Pharmacol. Exp. Ther. 45: 339) evaluates a supraspinally integrated response in the form of thermal pain reflexes due to footpad contact with a heated surface. During the experiments, the animal is confined in a removable clear acrylic compartment where the latency time to the first hind paw or/and jumping responses are measured. […] The response is the licking of the hindpaw, and the corresponding plate temperature represents the recorded nociceptive end-point. The advantage of Increasing-Temperature Hot-Plate test over the standard constant-temperature hot-plate test is the higher sensitivity and the lack of influences of pre-exposure to the hot-plate before testing. Animal reaction temperature is a measurement of animal resistance to pain and is used to measure efficacy of analgesics.

[4] = Partition into lipid bilayer vesicles (fluorescence titration); type: physicochemical; conditions: mammal-mimetic lipid bilayer vesicle; numerical treatment of fluorescence titration
Source text: We performed biophysical studies using fluorescent methodologies in order to characterize the interaction of KTP-NH2 with liposomes representing human cell membranes (Santos N. C., Prieto M. and Castanho M. A. 2003. Quantifying molecular partition into model systems of biomembranes: an emphasis on optical spectroscopic methods. Biochim Biophys Acta 1612: 123-135.). A clear interaction of KTP-NH2 with the lipid bilayers was observed. […] When titrated with a mammal-mimetic lipid bilayer vesicle (circles), the fluorescence intensity of the phenolic moiety increases due to insertion in the apolar environment created by the lipids. The POPC system mimetizes the external layer of human cell membranes, whereas POPG lipidic mixture mimetizes the internal layer of human cell membranes.
In order to confirm that these plasma-stable KTP-NH2 derivatives maintained their lipophilicity, their potential interaction with human cell membranes was assessed. Again, we performed biophysical studies using fluorescent methodologies (Santos N. C., Prieto M. and Castanho M. A. 2003. Quantifying molecular partition into model systems of biomembranes: an emphasis on optical spectroscopic methods. Biochim Biophys Acta 1612: 123-135.).

## CN[C@@H](Cc1ccc(O)cc1)C(=O)N[C@H](CCCNC(=N)N)C(N)=O [Me-L-Tyr-D-Arg-NH2, Methyl-L-Tyrosyl-D-Arginine-NH2]
[1]
  remaining at 1 h, 400 uM: 98.5%

## CN1CC[C@]23c4c5ccc(O)c4O[C@H]2[C@@H](O)C=C[C@H]3[C@H]1C5 [morphine, reference compound]
rats
  alterations in behavior (secondary effects): several alterations in behavior, like scratching

## N=C(N)NCCC[C@H](NC(=O)[C@H](N)Cc1ccc(O)cc1)C(N)=O [D-Tyr-L-Arg-NH2, D-Tyrosyl-L-Arginine-NH2]
[1]
  remaining at 1 h, 400 uM: 98%

## N=C(N)NCCC[C@@H](NC(=O)[C@H](N)Cc1ccc(O)cc1)C(N)=O [D-Tyr-D-Arg-NH2, D-Tyrosyl-D-Arginine-NH2]
[1]
  remaining at 1 h, 400 uM: 98.4%

## CC(C)Cc1ccc(C(C)C(=O)N[C@H](Cc2ccc(O)cc2)C(=O)N[C@@H](CCCNC(=N)N)C(N)=O)cc1 (stereo partly drawn) [Ibu-D-Tyr-L-Arg-NH2, Ibuprofen-D-Tyrosyl-L-Arginine-NH2]
[1]
  remaining at 1 h, 800 uM: 94.1%

## N=C(N)NCCC[C@H](NC(=O)[C@@H](N)Cc1ccc(O)cc1)C(=O)O [KTP, L-Tyrosyl-L-Arginine, reference compound]
Rats (Wister, male) [2]
  effect on tail flick latency: very small effect
Rats (Wister, male) [3]
  effect in hot plate test: very small effect

## N=C(N)NCCC[C@@H](NC(=O)[C@@H](N)Cc1ccc(O)cc1)C(N)=O [L-Tyr-D-Arg-NH2, L-Tyrosyl-D-Arginine-NH2]
[1]
  remaining at 1 h, 400 uM: 78.8%

## CC(C)Cc1ccc([C@H](C)C(=O)N[C@@H](Cc2ccc(O)cc2)C(=O)N[C@@H](CCCNC(=N)N)C(N)=O)cc1 [Ibu-KTP-NH2, Ibuprofen-L-Tyrosyl-L-Arginine-NH2]
[1]
  remaining at 1 h, 800 uM: 51.4%

## CN[C@@H](Cc1ccc(O)cc1)C(=O)N[C@@H](CCCNC(=N)N)C(N)=O [Me-L-Tyr-L-Arg-NH2, Methyl-L-Tyrosyl-L-Arginine-NH2]
[1]
  remaining at 1 h, 400 uM: 89%

## Ibuprofen-L-Tyrosyl-L-Arginine-OH [Ibu-KTP]
[4]
  local concentration in the model membrane of mammals relative to surrounding bulk aqueous phase: ~333 fold
